Entries after “also recorded” stand apart in the source; their conditions may differ.
Experiments:
[1] = system: Isolated rat adipocytes; test: localization of lipolytically cleaved and uncleaved GPI-proteins at hcDIGs, IcDIGs and total plasma membranes; type: cell-based; details: GPI-2350 50 µM, insulin 10 nM, glimepiride 20 µM
[2] = system: rat adipocytes; test: glucose transport assay; type: cell-based
Description: Glucose transport was determined as described in "Müller, G. et al., (1994) J. Cell Biol. 126: 1267-1276" by incubation of 10,000-20,000 washed adipocytes with 2-deoxy-D-[2,6-^3H]glucose at 50 µM final conc. (0.33 µCi/ml) in 50-µl portions for 20 min at 37°C in the absence or presence of 20 µM cytochalasin B.
Table 3: Isolated rat adipocytes were incubated in the presence of methyl-β-cyclodextrin (m-β-CD, 10 mM, 50 min), CBDP (300 µM, electroporation, followed by washing and subsequent incubation for 30 min), PIG41 (10 µM, 15 min), sodium orthovanadate (1 mM, 15 min), trypsin (10 µg/ml, 15 min followed by treatment with 0.5 M NaCl and subsequent washing) and N-ethylmaleimide (1 mM, 5 min followed by addition of DTT). After addition of GPI-2350 (50 µM final conc.) to one half of the adipocyte suspension and further incubation (60 min, 37°C), portions of the cells were assayed for 5'-Nuc activity in the isolated IcDIGs. The increase in 5'-Nuc during the basal incubation was set at 100 arb. units. Other portions of the cells (after 15 min incubation) were assayed for glucose transport which was set at 100 arb. units for the basal incubation. Means ± SD of at least 3 independent cell incubations with activity measurements in triplicate each are given.
Fig. 8: Effect of GPI-2350 on the glimepiride/insulin-induced metabolic activity. Isolated rat adipocytes were treated (5 min, 37°C) without or with GPI-2350 (Panel A, 50 µM; Panel B, increasing conc.; Panel C, 5 µM, 50 µM) and then incubated (15 min, 37°C) in the absence or presence of insulin (Ins, 10 nM) or glimepiride (Gli, 20 µM or increasing conc.) as indicated. The adipocytes were then assayed for glucose transport and isoproterenol-induced lipolysis. The activity is given relative to the absence of GPI-2350 in the control reaction (Panels A, basal) or in the insulin- and glimepiride-stimulated state (Panels B and C, set at 100). Means ± SD of at least 5 independent cell incubations with activity measurements in triplicate each are given.

[3] = system: rat adipocytes; test: isoproterenol-induced lipolysis measured as release of NBD-FA; type: cell-based; details: Rattus norvegicus, Adipocyte, given as 'up to', read-out: impairment of insulin inhibition of NBD-FA release
Description: Electroporation was performed as described in "Müller, G. et al., (2000) Mol. Cell. Biol. 20: 4708-4723". Lipolysis was determined as release of glycerol or fluorescent NBD-FA from prelabeled and isoproterenol-stimulated adipocytes as described in "Müller, G. et al., (2003) Biochimie 85: 1245-1256". Gce1 was detected by photolabeling of solubilized plasma membranes or hc/IcDIGs (10-50 µg protein) with 8-N3-[^32P]cAMP and subsequent phosphorimaging as described in "Müller, G. et al., (1994) Biochemistry 33: 12149-12159". 5'-Nuc, aP and AChE activities were measured according to "Eliakim, R. et al., (1990) Biochim. Biophys. Acta […]". Protein was determined using the BCA protein determination kit from Pierce (Rockford, IL) and BSA as calibration standard. SDS-PAGE was performed using precast gels (Novex, San Diego, CA; 10 % Bis-Tris resolving gel, morpholinopropanesulfonic acid-SDS running buffer). Lumiimages were evaluated on a Lumilmager using Lumilmager software (Roche Diagnostics). Phosphor- and fluorescence images were processed and quantified using the Storm 860 Phosphorlmager system (Molecular Dynamics, Gelsenkirchen, Germany). Figures were constructed using the Adobe Photoshop software (Adobe Systems, Mountain View, CA). […]

[4] = system: IRS-1 and pp59^Lyn; test: tyrosine phosphorylation of pp59^Lyn and IRS-1; type: cell-based, rat
Description: Polypeptides separated by SDS-PAGE were transferred to polyvinylidene difluoride membranes using the semidry procedure as described in "Müller, G. et al., (2001) Mol. Cell. Biol. 21: 4553-4567". Washed membranes were incubated anti-caveolin-1 (1:2000), anti-pp59^Lyn (1:1250), anti-aP (1:500), anti-5'-Nuc (1:750) and anti-IRS-1 (1:2000) antibodies for 4 h at 15°C. Washed membranes were incubated with horseradish peroxidase-coupled secondary goat anti-mouse (1:2000) or goat anti-rabbit IgG (1:4000) antibodies. Labeled proteins were visualized by enhanced chemiluminescence.
Fig. 7: Effect of GPI-2350 on the glimepiride/insulin-induced activation of signaling proteins. Isolated rat adipocytes were treated (5 min, 37°C) without or with GPI-2350 (Panels A, 50 µM; Panels B, increasing conc.) and then incubated (120 min, 37°C) in the absence or presence of insulin (10 nM) or glimepiride (20 µM). IRS-1 and pp59^Lyn were immunoprecipitated from the defatted postnuclear infranatant (see Materials and Methods) and solubilized combined hc/IcDIGs, respectively, and then immunoblotted for phosphotyrosine. […]

[5] = relative to amphiphilic version in PM of basal adipocytes (100)
[6] = relative to amphiphilic version in hcDIGs of basal adipocytes (100)

## CCCCCCCCCCCCP1(=O)O[C@@H]2[C@H](O)[C@@H](O)[C@H](O)[C@@H](O)[C@@H]2O1 (mixture of isomers) [GPI-2350, myo-inositol-1,2-cyclo-dodecylphosphonic acid]
[1]; [5]
  5'-Nuc hydroph. PM: 3±2 arb. units
  Gce1 hydroph. PM: 6±3 arb. units
  aP hydroph. PM: 4±3 arb. units
[1]; [6]
  5'-Nuc amphiph IcDIGs: 15±6 arb. units
  5'-Nuc amphiph hcDIGs: 112±19 arb. units
  5'-Nuc hydroph. IcDIGs: 3±1 arb. units
  5'-Nuc hydroph. hcDIGs: 7±3 arb. units
  Gce1 amphiph IcDIGs: 28±6 arb. units
  Gce1 amphiph hcDIGs: 109±10 arb. units
  Gce1 hydroph. IcDIGs: 14±7 arb. units
  Gce1 hydroph. hcDIGs: 21±7 arb. units
  aP amphiph IcDIGs: 19±13 arb. units
  aP amphiph hcDIGs: 117±11 arb. units
[2]; 50 µM
  effect on stimulation of glucose transport in response to glimepiride: almost complete blockade; also recorded: lower than control values
[2]; Rattus norvegicus, Adipocyte
  IC50: 2 to 5 µM
[2]; Rattus norvegicus, Adipocyte, 50 µM, insulin 10 nM, read-out: reduction of insulin stimulation of glucose transport
  inhibition at 50 µM: ≤ 25%
[3]
  inhibition at 50 µM: 25 to 30%
[4]; 50 µM
  effect on tyrosine phosphorylation of pp59^Lyn and IRS-1 in response to glimepiride: almost complete blockade
[4]; insulin-stimulated
  effect on metabolic insulin signaling (tyrosine phosphorylation of IRS-1 and inhibition of lipolysis): only marginally reduced
